Laboratory results published in patent publication US20100173845A1, “USE OF FERTIRELIN AND DELTA-ENDORPHIN AS THERAPEUTIC AGENTS” (priority 2007, published 2010).
Where a SMILES comes first, the peptide text is derived from it. Where no end group is shown, it is not given here. [ ]: non-standard residue; d: D form. pGlu = O=C1CC[C@@H](C(=O)O)N1

What was measured:
[1] = system: hepatitis B virus (HBV) ayw strain; experiment: HBV assay, secreted HBV DNA by TaqMan PCR in HepG2-2.2.15 cells; format: cell-based; conditions: 10 micrograms per ml; six days; HBV DNA in supernatant
[2] = system: murine spleen cells; experiment: Th1/Th2 cytokine profiling assay (Ovalbumin-restimulated spleen cells, CBA kit); format: cell-based, Balb/c mice; conditions: 10 micrograms per ml, 72 hours; for production of IL-5, decreased by: numbers are decreases; for production of IL-5, decreased by / production of IFN-y, induced/increased by / production of IL-2, induced/increased by / production of TNF-alpha, induced by (increase): words state no change; for production of IFN-y, induced/increased by / production of IL-2, induced/increased by / production of TNF-alpha, induced by (increase): numbers are increases
Description: The Balb/c mice (originated in 1923, it is a popular strain and is used in many different research disciplines. Also classified as an inbred from the production of 20 or more successive brother-sister matings, the Balb/c mouse is albino and small in size) were immunized on Days 1, 15, and 29 with Ovalbumin (Ovalbumin is the main protein found in egg white, commonly used to stimulate an immunological reaction in test animals) in PBS (5 micrograms/injection). On day 50, spleens of the mice were harvested (3 weeks after last boost with Ovalbumin). Cells were cultured (2×10^5/well in triplicate) and incubated with culture medium or test peptides−10 micrograms per ml−for 30 min. Thereafter, additional Ovalbumin was added to the cells at 10 micrograms/ml for in vitro restimulation of the cells. 72 hours later, cell supernatants were harvested and assayed using the Becton Dickinson Mouse Th1/Th2 Cytokine CBA Kit. This kit can be used to measure Interleukin-2 (IL-2), Interleukin-4 (IL-4), Interleukin-5 (IL-5), Interferon-γ (IFN-γ), and Tumor Necrosis Factor-α (TNF-α) protein levels in a single sample.

[3] = system: Primary Human endothelial cells (HUVEC); experiment: Endothelial cell migration assay; format: cell-based; conditions: 10 micrograms per ml; 22 hours
Description: Thereafter, designated concentration of testing peptides−10 micrograms per ml−was added in duplicate wells.

[4] = system: HUVEC; experiment: Endothelial tube formation assay; format: cell-based, human; conditions: 10 micrograms per ml; 20 hours
Excerpt: […] control wes vehicle only. […] Raw data were expressed as average tubule lenghs in pixels±standard deviation.

[5] = system: HCMV strain AD169; experiment: HCMV plaque formation assay in MRC-5 cells; conditions: for inhibition of HCMV plaque formation as compared to the virus control experiment: 10 micrograms per ml, 7-10 days, MRC-5 cells

Compound	inhibition of HBV replication as compared to the virus control infection [1] [%]	production of IL-4, induced/increased by ([2]; increase) [%]	production of IL-5, decreased by [2]	production of IFN-y, induced/increased by [2]	production of IL-2, induced/increased by [2]	production of TNF-alpha, induced by (increase) [2]	inhibition of the migration of human endothelial cells [3]	inhibition of the tube formation of human endothelial cells [4] [%]	inhibition of HCMV plaque formation as compared to the virus control experiment [5] [%]	production of IL-4, decreased by ([2]; decrease) [%]	antiviral activity of positive control compound ([5]; HCMV in MRC-5 cells)
CCNC(=O)[C@@H]1CCCN1C(=O)[C@H](CCCNC(=N)N)NC(=O)[C@H](CC(C)C)NC(=O)CNC(=O)[C@H](Cc1ccc(O)cc1)NC(=O)[C@H](CO)NC(=O)[C@H](Cc1c[nH]c2ccccc12)NC(=O)[C@H](Cc1c[nH]cn1)NC(=O)[C@@H]1CCC(=O)N1 [Peptide 1] ([pGlu]HWSYGLRP-NHEt)	47.1	139.7	did not significantly change	114.7%	168.2%	27.5%	26%	11	2.1	–	–
YGGFMTSEKSQTPLVTLFKNAIIKNAY [Peptide 2]	0	–	48.1%	did not significantly change	did not significantly change	did not significantly change	no effect	11	0.7	31.5	–
Nc1nc(O)c2ncn(COC(CO)CO)c2n1 [Ganciclovir, reference compound]	–	–	–	–	–	–	–	–	–	–	expected levels of antiviral activity
